Values quoted from earlier work as cited in US20240108579A1, “UTIDELONE LIPOSOME COMPOSITION, AND PREPARATION METHOD THEREFOR AND USE THEREOF” (Chengdu Biostar Pharmaceuticals, LTD., priority 2021, published 2024).
Where two headings read alike, the source gives them in different places.

CC1=CCC(C(C)=Cc2csc(C)n2)OC(=O)CC(O)C(C)(C)C(=O)C(C)C(O)C(C)CCC1 (stereo not drawn) [Utidelone, 4,8-dihydroxy-5,5,7,9,13-pentamethyl-16-[1-methyl-2-(2-methyl-thiazole-4-yl)-vinyl]-hexadecoxetane-13-en-2,6-one lactone]
solubility (in words) (ethanol, methanol, ethyl acetate, and chloroform): easily soluble
saturated solubility in water (water): less than 1 μg/ml
solubility (in words) (water): insoluble
